Results reported in PubChem BioAssay AID192 (DTP/NCI, 2004).
Where “and” joins values, the source holds several entries; their conditions need not be identical. Equal entries are not always repeated. Toxic doses and inconclusive results are not listed. The calls were made as follows: active = survival T/C of 150% or more; inactive = T/C below 125% in these data.

Tested on: BDF1 mice, B16 melanoma ip, median survival T/C
Assay: NCI In Vivo Anticancer Drug Screen. Data for tumor model B16 Melanoma (intraperitoneal) in B6D2F1 (BDF1) mice
Details: endpoint: median survival time, higher = longer survival
Summary of the method: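 Antitumor activity is assessed in mice bearing a transplanted tumor, with survival or tumor size compared against vehicle-dosed controls and expressed as T/C.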

[1] = dose: 10.0 mg/kg/injection, schedule: Q01DX009 (ip), vehicle: saline
[2] = dose: 12.5 mg/kg/injection, schedule: Q01DX009 (ip), vehicle: saline
[3] = dose: 50.0 mg/kg/injection, schedule: Q01DX009 (ip), vehicle: saline

Measured: T/C

CCCCCCCCCCCCSC1=CC(=O)C(OC)=C(OC)C1=O
inactive: dose: 6.25 mg/kg/injection, schedule: Q01DX030 (ip), vehicle: saline with Tween-80 99 % of control | dose: 12.5 mg/kg/injection, schedule: Q01DX030 (ip), vehicle: saline with Tween-80 95 % of control | dose: 25.0 mg/kg/injection, schedule: Q01DX030 (ip), vehicle: saline with Tween-80 91 % of control

COc1ccc2nc3ccccc3c(NCCNCCO)c2c1
inactive: [1] 123 % of control

O=C(O)/C=C\C(=O)Nc1ccccn1
inactive: dose: 5.0 mg/kg/injection, schedule: Q01DX009 (ip), vehicle: saline 100 % of control | [1] 100 % of control | dose: 30.0 mg/kg/injection, schedule: Q01DX009 (ip), vehicle: saline 112 % of control | dose: 60.0 mg/kg/injection, schedule: Q01DX009 (ip), vehicle: saline 109 % of control

CC(=O)c1ccc2c(c1)N(CCCN1CCN(CCO)CC1)c1ccccc1S2
inactive: dose: 0.78 mg/kg/injection, schedule: Q01DX009 (ip), vehicle: saline 98 % of control | dose: 1.56 mg/kg/injection, schedule: Q01DX009 (ip), vehicle: saline 103 % of control | dose: 3.12 mg/kg/injection, schedule: Q01DX009 (ip), vehicle: saline 97 % of control

Cc1ccccc1N=Cc1ccc2c(c1)OCO2
inactive: dose: 50.0 mg/kg/injection, schedule: Q01DX009 (ip), vehicle: Klucel (hydroxypropylcellulose) (HPC) 102 % of control | dose: 100.0 mg/kg/injection, schedule: Q01DX009 (ip), vehicle: Klucel (hydroxypropylcellulose) (HPC) 95 % of control | dose: 200.0 mg/kg/injection, schedule: Q01DX009 (ip), vehicle: Klucel (hydroxypropylcellulose) (HPC) 100 % of control

Nc1nc(F)nc2nc[nH]c12
inactive: dose: 5.0 mg/kg/injection, schedule: Q01DX009 (ip), vehicle: Klucel (hydroxypropylcellulose) (HPC) 88 % of control and 109 % of control | dose: 10.0 mg/kg/injection, schedule: Q01DX009 (ip), vehicle: Klucel (hydroxypropylcellulose) (HPC) 90 % of control and 118 % of control | dose: 20.0 mg/kg/injection, schedule: Q01DX009 (ip), vehicle: Klucel (hydroxypropylcellulose) (HPC) 95 % of control and 122 % of control

CCOC(OCC)C(=O)NNC(C)C
inactive: dose: 6.25 mg/kg/injection, schedule: Q01DX009 (ip), vehicle: saline 105 % of control | [2] 111 % of control | [3] 100 % of control

COc1cc2c(Cc3ccc(OC)c(OC)c3)[n+](Cc3ccccc3)ccc2cc1NCc1ccccc1
inactive: dose: 0.78 mg/kg/injection, schedule: Q01DX009 (ip), vehicle: saline with Tween-80 105 % of control | dose: 1.56 mg/kg/injection, schedule: Q01DX009 (ip), vehicle: saline with Tween-80 106 % of control | dose: 3.12 mg/kg/injection, schedule: Q01DX009 (ip), vehicle: saline with Tween-80 110 % of control | dose: 6.25 mg/kg/injection, schedule: Q01DX009 (ip), vehicle: saline with Tween-80 110 % of control

COCC(O)Cn1ccnc1[N+](=O)[O-] (stereo unspecified)
inactive: [2] 111 % of control | dose: 12.5 mg/kg/injection, schedule: Q01DX009 (ip), vehicle: suspension in saline 124 % of control | dose: 12.5 mg/kg/injection, schedule: Q01DX009 (ip), vehicle: water 95 % of control | dose: 25.0 mg/kg/injection, schedule: Q01DX009 (ip), vehicle: saline 105 % of control | dose: 25.0 mg/kg/injection, schedule: Q01DX009 (ip), vehicle: suspension in saline 124 % of control | dose: 25.0 mg/kg/injection, schedule: Q01DX009 (ip), vehicle: water 100 % of control | [3] 107 % of control | dose: 50.0 mg/kg/injection, schedule: Q01DX009 (ip), vehicle: suspension in saline 103 % of control | dose: 50.0 mg/kg/injection, schedule: Q01DX009 (ip), vehicle: water 111 % of control | dose: 100.0 mg/kg/injection, schedule: Q01DX009 (ip), vehicle: saline 101 % of control | dose: 100.0 mg/kg/injection, schedule: Q01DX009 (ip), vehicle: suspension in saline 110 % of control | dose: 100.0 mg/kg/injection, schedule: Q01DX009 (ip), vehicle: water 100 % of control | dose: 200.0 mg/kg/injection, schedule: Q01DX009 (ip), vehicle: saline 107 % of control | dose: 200.0 mg/kg/injection, schedule: Q01DX009 (ip), vehicle: suspension in saline 124 % of control | dose: 200.0 mg/kg/injection, schedule: Q01DX009 (ip), vehicle: water 103 % of control | dose: 400.0 mg/kg/injection, schedule: Q01DX009 (ip), vehicle: saline 104 % of control | dose: 400.0 mg/kg/injection, schedule: Q01DX009 (ip), vehicle: water 100 % of control

OC(C(c1ccccc1)c1ccccn1)(C(F)(F)F)C(F)(F)F (stereo unspecified)
inactive: dose: 66.0 mg/kg/injection, schedule: Q04DX003 (ip), vehicle: saline with Tween-80 112 % of control | dose: 100.0 mg/kg/injection, schedule: Q01DX009 (ip), vehicle: saline with Tween-80 110 % of control | dose: 100.0 mg/kg/injection, schedule: Q04DX003 (ip), vehicle: saline with Tween-80 117 % of control | dose: 150.0 mg/kg/injection, schedule: Q04DX003 (ip), vehicle: saline with Tween-80 115 % of control | dose: 200.0 mg/kg/injection, schedule: Q01DX009 (ip), vehicle: saline with Tween-80 112 % of control | dose: 400.0 mg/kg/injection, schedule: Q01DX009 (ip), vehicle: saline with Tween-80 105 % of control

O=S(=O)(F)c1cc(C[P+](c2ccccc2)(c2ccccc2)c2ccccc2)ccc1Cl
inactive: dose: 0.1 mg/kg/injection, schedule: Q01DX009 (ip), vehicle: saline with Tween-80 105 % of control | dose: 0.1 mg/kg/injection, schedule: Q04DX003 (ip), vehicle: saline with Tween-80 112 % of control | dose: 0.2 mg/kg/injection, schedule: Q01DX009 (ip), vehicle: saline with Tween-80 90 % of control | dose: 0.2 mg/kg/injection, schedule: Q04DX003 (ip), vehicle: saline with Tween-80 110 % of control | dose: 0.4 mg/kg/injection, schedule: Q01DX009 (ip), vehicle: saline with Tween-80 100 % of control | dose: 0.4 mg/kg/injection, schedule: Q04DX003 (ip), vehicle: saline with Tween-80 110 % of control | dose: 3.0 mg/kg/injection, schedule: Q04DX003 (ip), vehicle: saline with Tween-80 86 % of control | dose: 12.5 mg/kg/injection, schedule: Q04DX003 (ip), vehicle: saline with Tween-80 86 % of control

C=C1C(=O)O[C@@H]2/C=C(\C)CC/C=C(/COC(C)=O)C[C@@H](OC(C)=O)[C@@H]12
inactive: dose: 5.0 mg/kg/injection, schedule: Q01DX009 (ip), vehicle: saline with Tween-80 107 % of control | dose: 10.0 mg/kg/injection, schedule: Q01DX009 (ip), vehicle: saline with Tween-80 99 % of control | dose: 18.0 mg/kg/injection, schedule: Q01DX009 (ip), vehicle: acetone 95 % of control | dose: 20.0 mg/kg/injection, schedule: Q01DX009 (ip), vehicle: saline with Tween-80 104 % of control

CC(C)(C)OC(=O)C(CSSCC(NC(=O)OCc1ccccc1)C(=O)OC(C)(C)C)NC(=O)OCc1ccccc1 (stereo unspecified)
inactive: dose: 75.0 mg/kg/injection, schedule: Q01DX009 (ip), vehicle: Klucel (hydroxypropylcellulose) (HPC) 94 % of control | dose: 150.0 mg/kg/injection, schedule: Q01DX009 (ip), vehicle: Klucel (hydroxypropylcellulose) (HPC) 100 % of control | dose: 300.0 mg/kg/injection, schedule: Q01DX009 (ip), vehicle: Klucel (hydroxypropylcellulose) (HPC) 88 % of control

Cc1ccc(S(=O)(=O)N/N=C/c2ccccc2)cc1
inactive: dose: 50.0 mg/kg/injection, schedule: Q01DX009 (ip), vehicle: other 104 % of control | dose: 100.0 mg/kg/injection, schedule: Q01DX009 (ip), vehicle: other 110 % of control | dose: 200.0 mg/kg/injection, schedule: Q01DX009 (ip), vehicle: other 103 % of control | dose: 400.0 mg/kg/injection, schedule: Q01DX009 (ip), vehicle: other 106 % of control
